Source: patent US10329302B2, “Bicyclic-fused heteroaryl or aryl compounds” (Pfizer Inc., priority 2014, dated 2019)
pIC50: −log10 of the molar value. Like-named read-outs stand apart in the source and are kept apart here.

Columns and labels:
[1] = biological target: human IRAK4 FL (Full Length) (Homo sapiens (Human), UniProt Q9NWZ3); assay: IRAK4 Enzymatic DELFIA Assay, Protocol A; assay type: biochemical
[2] = system: R848-induced TNFα production by human peripheral blood mononuclear cells (PBMCs); assay: R848 Induced TNFα in Human PBMC Assay; assay type: cell-based; details: Homo sapiens, PBMC, 3 h, read-out: R848-induced TNFa PBMC IC50 (nM)
[3] = human IRAK4 FL, 0.6 mM ATP (KM), read-out: IRAK4 DELFIA Protocol A IC50

Sequence of human IRAK4 FL (Full Length) (Q9NWZ3 whole entry): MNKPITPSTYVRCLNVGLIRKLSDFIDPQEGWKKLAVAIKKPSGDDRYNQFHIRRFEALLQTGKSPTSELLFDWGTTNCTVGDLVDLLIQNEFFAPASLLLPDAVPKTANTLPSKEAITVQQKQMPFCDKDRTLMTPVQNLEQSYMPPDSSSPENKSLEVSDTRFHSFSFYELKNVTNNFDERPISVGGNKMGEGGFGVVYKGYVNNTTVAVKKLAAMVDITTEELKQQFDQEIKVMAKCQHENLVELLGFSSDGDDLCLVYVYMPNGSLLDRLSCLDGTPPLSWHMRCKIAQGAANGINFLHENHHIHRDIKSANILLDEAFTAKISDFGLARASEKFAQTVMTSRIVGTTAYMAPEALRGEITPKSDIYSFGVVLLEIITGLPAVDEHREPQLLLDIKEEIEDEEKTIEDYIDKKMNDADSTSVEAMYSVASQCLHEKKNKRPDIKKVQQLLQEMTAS

| Structure (SMILES) | pIC50 [1, 3] | IC50 [2] [nM] | pIC50 [1] |
| --- | --- | --- | --- |
| CC(C)Oc1cc2c(OC[C@@H]3CC(C4(O)CCOCC4)C(=O)N3)nccc2cc1C(N)=O (stereo partly drawn) [Example 181, 1-{[(2S)-4-(4-hydroxytetrahydro-2H-pyran-4-yl)-5-oxopyrrolidin-2-yl]methoxy}-7-(propan-2-yloxy)isoquinoline-6-carboxamide] | 8.24 | 503 |  |
| CC(C)Oc1cc2c(OC[C@H]3NC(=O)C(F)(F)[C@H]3C)nccc2cc1C(N)=O [Example 183, 1-{[(2S,3S)-4,4-difluoro-3-methyl-5-oxopyrrolidin-2-yl]methoxy}-7-(propan-2-yloxy)isoquinoline-6-carboxamide] | 9.70 | 10 |  |
| CC(C)Oc1cc2c(OC[C@H]3NC(=O)[C@@H](F)[C@H]3C)nccc2cc1C(N)=O [Example 187, 1-{[(2S,3S,4S)-4-fluoro-3-methyl-5-oxopyrrolidin-2-yl]methoxy}-7-(propan-2-yloxy)isoquinoline-6-carboxamide] | 8.96 | 40 |  |
| CC[C@H]1[C@@H](COc2nccc3cc(C(N)=O)c(OC(C)C)cc23)NC(=O)C1(F)F [Example 201, 1-{[(2S,3S)-3-ethyl-4,4-difluoro-5-oxopyrrolidin-2-yl]methoxy}-7-(propan-2-yloxy)isoquinoline-6-carboxamide] | 9.40 | 1 |  |
| CC(C)Oc1cc2c(OC[C@@H]3CNC(=O)N3)nccc2cc1C(N)=O [Example 202, 1-{[(4S)-2-oxoimidazolidin-4-yl]methoxy}-7-(propan-2-yloxy)isoquinoline-6-carboxamide] | 7.07 | 922 |  |
| COc1cc2c(OC[C@@H]3C[C@@](F)(CO)C(=O)N3)nccc2cc1C(N)=O [Example 205, 1-{[(2S,4R)-4-fluoro-4-(hydroxymethyl)-5-oxopyrrolidin-2-yl]methoxy}-7-methoxyisoquinoline-6-carboxamide] | 8.44 | 380 |  |
| COc1cc2c(OC[C@@H]3CCC(=O)N3)cncc2cc1C(N)=O [Example 206, 6-methoxy-4-{[(2S)-5-oxopyrrolidin-2-yl]methoxy}isoquinoline-7-carboxamide] | 6.67 | 4570 |  |
| COc1cc2c(OC[C@H]3NC(=O)[C@](F)(CO)[C@H]3C)nccc2cc1C(N)=O [Example 208, 1-{[(2S,3S,4R)-4-fluoro-4-(hydroxymethyl)-3-methyl-5-oxopyrrolidin-2-yl]methoxy}-7-methoxyisoquinoline-6-carboxamide] | 8.96 | 87 |  |
| COc1cc2c(OC[C@@H]3CCC(=O)N3)ncnc2cc1C(N)=O [Example 209, 6-methoxy-4-{[(2S)-5-oxopyrrolidin-2-yl]methoxy}quinazoline-7-carboxamide] | 6.60 | 9310 |  |
| COc1cc2c(OC[C@@H]3C[C@@](F)(CF)C(=O)N3)nccc2cc1C(N)=O [Example 215, 1-{[(2S,4S)-4-fluoro-4-(fluoromethyl)-5-oxopyrrolidin-2-yl]methoxy}-7-methoxyisoquinoline-6-carboxamide] |  | 35 | 8.77 |
| COc1cc2c(OC[C@H]3NC(=O)C[C@H]3C)cccc2cc1C(N)=O [Example 216, 3-methoxy-5-{[(2S,3R)-3-methyl-5-oxopyrrolidin-2-yl]methoxy}naphthalene-2-carboxamide] | 9.40 | 27 |  |
| COc1cc2c(OC[C@H]3NC(=O)[C@@H](F)[C@H]3C)cccc2cc1C(N)=O [Example 218, 5-{[(2S,3S,4S)-4-fluoro-3-methyl-5-oxopyrrolidin-2-yl]methoxy}-3-methoxynaphthalene-2-carboxamide] | 9.52 | 11 |  |
| CC(C)Oc1cc2c(OC[C@H]3NC(=O)C[C@H]3C)nccc2cc1C(N)=O [Example 219, 1-{[(2S,3R)-3-methyl-5-oxopyrrolidin-2-yl]methoxy}-7-(propan-2-yloxy)isoquinoline-6-carboxamide] | 8.77 | 65 |  |
| COc1cc2c(OC[C@@H]3C[C@@H](CC#N)C(=O)N3)nccc2cc1C(N)=O [Example 225, 1-{[(2S,4S)-4-(cyanomethyl)-5-oxopyrrolidin-2-yl]methoxy}-7-methoxyisoquinoline-6-carboxamide] | 8.47 | 155 |  |
| COc1cc2c(OC[C@H]3NC(=O)O[C@@H]3C)nccc2cc1C(N)=O [Example 227, 7-methoxy-1-{[(4R,5R)-5-methyl-2-oxo-1,3-oxazolidin-4-yl]methoxy}isoquinoline-6-carboxamide] | 7.72 | 749 |  |
| COc1cc2c(OC[C@H]3NC(=O)O[C@@H]3C)cccc2cc1C(N)=O [Example 228, 3-methoxy-5-{[(4R,5R)-5-methyl-2-oxo-1,3-oxazolidin-4-yl]methoxy}naphthalene-2-carboxamide] | 8.38 | 118 |  |
| COc1cc2c(OC[C@H]3COC(=O)N3)nccc2cc1C(N)=O [Example 229, 7-methoxy-1-{[(4S)-2-oxo-1,3-oxazolidin-4-yl]methoxy}isoquinoline-6-carboxamide] | 5.45 | 6300 |  |
| COc1cc2c(OC[C@@H]3COC(=O)N3)nccc2cc1C(N)=O [Example 230, 7-methoxy-1-{[(4R)-2-oxo-1,3-oxazolidin-4-yl]methoxy}isoquinoline-6-carboxamide] | 8.15 | 199 |  |

| Structure (SMILES) | pIC50 [1, 3] | IC50 [2] [nM] | pIC50 [1] |
| --- | --- | --- | --- |
| COc1cc2c(OC[C@@H]3C[C@H](OC)C(=O)N3)cccc2cc1C(N)=O [Example 231, 3-methoxy-5-{[(2S,4S)-4-methoxy-5-oxopyrrolidin-2-yl]methoxy}naphthalene-2-carboxamide] |  | 509 | 7.17 |
| COc1cc2c(OC[C@@H]3C[C@@H](OC)C(=O)N3)cccc2cc1C(N)=O [Example 232, 3-methoxy-5-{[(2S,4R)-4-methoxy-5-oxopyrrolidin-2-yl]methoxy}naphthalene-2-carboxamide] | 7.70 | 261 |  |
| COc1cc2c(OC[C@@H]3COC(=O)N3)cccc2cc1C(N)=O [Example 233, 3-methoxy-5-{[(4R)-2-oxo-1,3-oxazolidin-4-yl]methoxy}naphthalene-2-carboxamide] | 9.52 | 47 |  |
| COc1cc2c(OC[C@H]3NC(=O)O[C@H]3C)cccc2cc1C(N)=O [Example 234, 3-methoxy-5-{[(4R,5S)-5-methyl-2-oxo-1,3-oxazolidin-4-yl]methoxy}naphthalene-2-carboxamide] | 8.72 | 45 |  |
| COc1cc2c(OC[C@H]3CNC(=O)O3)nccc2cc1C(N)=O [Example 235, 7-methoxy-1-{[(5R)-2-oxo-1,3-oxazolidin-5-yl]methoxy}isoquinoline-6-carboxamide] | 7.01 | 1090 |  |
| COc1cc2c(OC[C@H]3NC(=O)O[C@H]3C)nccc2cc1C(N)=O [Example 236, 7-methoxy-1-{[(4R,5S)-5-methyl-2-oxo-1,3-oxazolidin-4-yl]methoxy}isoquinoline-6-carboxamide] | 8.08 | 125 |  |
| COc1cc2c(OC[C@H]3NC(=O)[C@](C)(F)[C@H]3C)nccc2cc1C(N)=O [Example 237, 1-{[(2S,3S,4R)-4-fluoro-3,4-dimethyl-5-oxopyrrolidin-2-yl]methoxy}-7-methoxyisoquinoline-6-carboxamide] | 6.53 | 1080 |  |
| COc1cc2c(OC[C@H]3NC(=O)[C@@](C)(F)[C@H]3C)nccc2cc1C(N)=O [Example 238, 1-{[(2S,3S,4S)-4-fluoro-3,4-dimethyl-5-oxopyrrolidin-2-yl]methoxy}-7-methoxyisoquinoline-6-carboxamide] | 8.43 | 45 |  |
| COc1cc2c(OC[C@@H]3C[C@H](C)C(=O)N3)nccc2cc1C(N)=O [Example 242, 7-methoxy-1-{[(2S,4S)-4-methyl-5-oxopyrrolidin-2-yl]methoxy}isoquinoline-6-carboxamide] | 6.58 | 7250 |  |
| COc1cc2c(OC[C@@H]3C[C@@H](C)C(=O)N3)nccc2cc1C(N)=O [Example 243, 7-methoxy-1-{[(2S,4R)-4-methyl-5-oxopyrrolidin-2-yl]methoxy}isoquinoline-6-carboxamide] | 6.69 | 713 |  |
| COc1cc2c(OC[C@@H]3CC4(CC4)C(=O)N3)nccc2cc1C(N)=O [Example 245, 7-methoxy-1-{[(6S)-4-oxo-5-azaspiro[2.4]hept-6-yl]methoxy}isoquinoline-6-carboxamide] | 7.54 | 529 |  |
| COc1cc2c(OC[C@H]3NC(=O)C[C@@H]3CF)nccc2cc1C(N)=O [Example 249, 1-{[(2S,3S)-3-(fluoromethyl)-5-oxopyrrolidin-2-yl]methoxy}-7-methoxyisoquinoline-6-carboxamide] | 7.70 | 764 |  |
| COc1cc2c(OC[C@H]3NC(=O)[C@@H](F)[C@H]3C)ccnc2cc1C(N)=O [Example 250, 4-{[(2S,3S,4S)-4-fluoro-3-methyl-5-oxopyrrolidin-2-yl]methoxy}-6-methoxyquinoline-7-carboxamide] | 9.22 | 144 |  |
| C=C[C@@H]1CC(=O)N[C@@H]1COc1nccc2cc(C(N)=O)c(OC)cc12 [Example 251, 1-{[(2S,3S)-3-ethenyl-5-oxopyrrolidin-2-yl]methoxy}-7-methoxyisoquinoline-6-carboxamide] | 8.47 | 72 |  |
| COc1cc2c(OC[C@@H]3C[C@H](F)C(=O)N3)nccc2cc1C(N)=O [Example 252, 1-{[(2S,4S)-4-fluoro-5-oxopyrrolidin-2-yl]methoxy}-7-methoxyisoquinoline-6-carboxamide] | 9.05 | 40 |  |
| COc1cc2c(OC[C@@H]3C[C@@H](F)C(=O)N3)nccc2cc1C(N)=O [Example 253, 1-{[(2S,4R)-4-fluoro-5-oxopyrrolidin-2-yl]methoxy}-7-methoxyisoquinoline-6-carboxamide] | 8.59 | 122 |  |
| CC[C@@]1(F)C[C@@H](COc2nccc3cc(C(N)=O)c(OC)cc23)NC1=O [Example 256, 1-{[(2S,4R)-4-ethyl-4-fluoro-5-oxopyrrolidin-2-yl]methoxy}-7-methoxyisoquinoline-6-carboxamide] | 5.70 | 5620 |  |
